# Literature values as cited in patent publication US12358983B2, “Combination of anti CD19 antibody with a BCL-2 inhibitor and uses thereof” (Incyte Corporation, priority 2016, dated 2025).
# Legend:
# [1] = test system: primary cells from patients with B-cell malignancies; settings: in vitro studies; cited from earlier work
# [2] = test system: lymphoma and other blood cancers; settings: in vivo; cited from earlier work
# [3] = mouse, in vivo; cited from earlier work
compound,measurement,setting,value
CN(C)CC[C@H](CSc1ccccc1)Nc1ccc(S(=O)(=O)NC(=O)c2ccc(N3CCN(Cc4ccccc4-c4ccc(Cl)cc4)CC3)cc2)cc1[N+](=O)[O-] [ABT-737],Sensitivity of primary cells (in words),[1],sensitive
same,Efficacy in patient xenografts (in words),[2],showed efficacy
same,Effect in animal models (in words),[3],"improves survival, causes tumor regression and cures a high percentage of mice"
